Tests used:
Assay in all cases: Test C postemergence, plant response rating
Type in all cases: in vivo
[1] = system: barnyardgrass (Echinochloa crus-galli); conditions: Echinochloa crus-galli, post-emergence
Summary of the method: (§1)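 After sowing in loam–sand blend or silt loam, pots were sprayed preemergence; separately grown 1- to 4-leaf plants were sprayed postemergence. Following 13 to 15 d under greenhouse conditions, injury was rated visually on a 0 to 100 scale.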

[2] = system: blackgrass (Alopecurus myosuroides); conditions: Alopecurus myosuroides, post-emergence
Summary of the method: as §1

corn (Zea mays) = conditions: Zea mays, post-emergence
Summary of the method: as §1

[3] = system: crabgrass, large (large crabgrass, Digitaria sanguinalis); conditions: Digitaria sanguinalis, post-emergence
Summary of the method: as §1

[4] = system: galium (catchweed bedstraw, Galium aparine); conditions: Galium, post-emergence
Summary of the method: as §1

kochia (Kochia scoparia) = conditions: Bassia scoparia, post-emergence
Summary of the method: as §1

[5] = system: lambsquarters (Chenopodium album); conditions: Chenopodium album, post-emergence
Summary of the method: as §1

[6] = system: nutsedge, yellow (yellow nutsedge, Cyperus esculentus); conditions: Cyperus, post-emergence
Summary of the method: as §1

[7] = system: oat, wild (wild oat Avena fatua); conditions: Avena fatua, post-emergence
Summary of the method: as §1

[8] = system: oilseed rape (Brassica napus); conditions: Brassica napus, post-emergence
Summary of the method: as §1

[9] = system: ragweed (common ragweed, Ambrosia elatior); conditions: Ambrosia artemisiifolia, post-emergence
Summary of the method: as §1

[10] = system: ryegrass, Italian (Italian ryegrass, Lolium multiflorum); conditions: Lolium multiflorum, post-emergence
Summary of the method: as §1

soybean (Glycine max) = conditions: Glycine max, post-emergence
Summary of the method: as §1

[11] = system: velvetleaf (Abutilon theophrasti); conditions: Abutilon theophrasti, post-emergence
Summary of the method: as §1

[12] = system: wheat (winter wheat, Triticum aestivum); conditions: Triticum aestivum, post-emergence
Summary of the method: as §1

[13] = 62 g ai/ha, scale 0 to 100 (0 no effect, 100 complete control)
[14] = 125 g ai/ha, scale 0 to 100 (0 no effect, 100 complete control)

O=C(OCCC(F)(F)F)c1c(Cl)cccc1Oc1ncc(Cl)cn1 [Compound 15, 3,3,3-trifluoropropyl 2-chloro-6-[(5-chloro-2-pyrimidinyl)oxy]benzoate]
70%: pest or weed control at 16 g/ha ([4]; 16 g ai/ha, scale 0 to 100) | pest or weed control at 16 g/ha ([5]; 16 g ai/ha, scale 0 to 100)
10%: pest or weed control at 62 g/ha [2, 13] | pest or weed control at 125 g/ha [2, 14] | Corn plant response rating (crop injury, 0 = no effect, 100 = complete kill) at 31 g/ha (corn (Zea mays); 31 g ai/ha, scale 0 to 100) | pest or weed control at 125 g/ha [7, 14] | pest or weed control at 62 g/ha [10, 13]
95%: pest or weed control at 62 g/ha [4, 13] | pest or weed control at 125 g/ha [4, 14] | pest or weed control at 31 g/ha (kochia (Kochia scoparia); 31 g ai/ha, scale 0 to 100) | pest or weed control at 62 g/ha (kochia (Kochia scoparia); [13]) | pest or weed control at 125 g/ha (kochia (Kochia scoparia); [14]) | pest or weed control at 125 g/ha [5, 14] | plant injury at 31 g/ha ([8]; 31 g ai/ha, scale 0 to 100)
20%: pest or weed control at 16 g/ha ([1]; 16 g ai/ha, scale 0 to 100) | pest or weed control at 62 g/ha [1, 13] | pest or weed control at 125 g/ha [1, 14] | plant injury at 62 g/ha (corn (Zea mays); [13]) | plant injury at 125 g/ha (corn (Zea mays); [14]) | pest or weed control at 31 g/ha ([3]; 31 g ai/ha, scale 0 to 100) | pest or weed control at 125 g/ha [6, 14]
0%: pest or weed control at 16 g/ha ([2]; 16 g ai/ha, scale 0 to 100) | pest or weed control at 16 g/ha ([6]; 16 g ai/ha, scale 0 to 100) | pest or weed control at 31 g/ha ([6]; 31 g ai/ha, scale 0 to 100) | plant injury at 125 g/ha [8, 14] | pest or weed control at 16 g/ha ([10]; 16 g ai/ha, scale 0 to 100) | plant injury at 16 g/ha ([12]; 16 g ai/ha, scale 0 to 100) | plant injury at 31 g/ha ([12]; 31 g ai/ha, scale 0 to 100) | plant injury at 62 g/ha ([12]; 62 g ai/ha, scale 0 to 100 (0 no effect, 100 complete control), read-out: Wheat plant response rating) | plant injury at 125 g/ha [12, 14]
5%: pest or weed control at 31 g/ha ([2]; 31 g ai/ha, scale 0 to 100) | pest or weed control at 62 g/ha [6, 13] | pest or weed control at 16 g/ha ([7]; 16 g ai/ha, scale 0 to 100) | pest or weed control at 31 g/ha ([7]; 31 g ai/ha, scale 0 to 100) | pest or weed control at 62 g/ha [7, 13] | pest or weed control at 31 g/ha ([10]; 31 g ai/ha, scale 0 to 100) | pest or weed control at 125 g/ha [10, 14]
90%: pest or weed control at 16 g/ha (kochia (Kochia scoparia); 16 g ai/ha, scale 0 to 100) | plant injury at 125 g/ha (soybean (Glycine max); [14])
100%: plant injury at 62 g/ha [8, 13]
50%: pest or weed control at 62 g/ha [9, 13] | pest or weed control at 16 g/ha ([11]; 16 g ai/ha, scale 0 to 100) | pest or weed control at 31 g/ha ([11]; 31 g ai/ha, scale 0 to 100)
15%: pest or weed control at 31 g/ha ([1]; 31 g ai/ha, scale 0 to 100) | Corn plant response rating (crop injury, 0 = no effect, 100 = complete kill) at 16 g/ha (corn (Zea mays); 16 g ai/ha, scale 0 to 100)
65%: pest or weed control at 125 g/ha [9, 14]
30%: pest or weed control at 16 g/ha ([3]; 16 g ai/ha, scale 0 to 100) | pest or weed control at 16 g/ha ([9]; 16 g ai/ha, scale 0 to 100)
85%: pest or weed control at 125 g/ha [11, 14]
60%: pest or weed control at 31 g/ha ([4]; 31 g ai/ha, scale 0 to 100) | pest or weed control at 62 g/ha ([11]; 62 g ai/ha, scale 0 to 100 (0 no effect, 100 complete control), read-out: Velvetleaf plant response rating)
40%: pest or weed control at 31 g/ha ([9]; 31 g ai/ha, scale 0 to 100)
75%: pest or weed control at 31 g/ha ([5]; 31 g ai/ha, scale 0 to 100) | pest or weed control at 62 g/ha [5, 13]
80%: plant injury at 62 g/ha (soybean (Glycine max); [13])
25%: pest or weed control at 62 g/ha [3, 13] | pest or weed control at 125 g/ha [3, 14]
45%: plant injury at 16 g/ha ([8]; 16 g ai/ha, scale 0 to 100) | plant injury at 16 g/ha (soybean (Glycine max); 16 g ai/ha, scale 0 to 100) | plant injury at 31 g/ha (soybean (Glycine max); 31 g ai/ha, scale 0 to 100)
